How the values were obtained:
Format in all cases: functional
K562 [1] = test: Induction of apoptosis in human K562 cells assessed as late apoptotic cells at 2.56 uM incubated for 24 hrs by annexinV and propidium iodide staining based flow cytometry analysis (reference value: 0.82%)
K562 [2] = test: Induction of apoptosis in human K562 cells assessed as early apoptotic cells at 1.28 uM incubated for 24 hrs by annexinV and propidium iodide staining based flow cytometry analysis (reference value: 1.17%)
K562 [3] = test: Induction of cell cycle arrest in human K562 cells assessed as accumulation of cells at S phase at 1.28 uM measured after 24 hrs by PI staining based flow cytometry analysis (reference value: 24.75%)
K562 [4] = test: Induction of cell cycle arrest in human K562 cells assessed as accumulation of cells at G2/M phase at 0.64 uM measured after 24 hrs by PI staining based flow cytometry analysis (reference value: 29.09%)
K562 [5] = test: Induction of cell cycle arrest in human K562 cells assessed as accumulation of cells at G0/G1 phase at 2.5 uM measured after 24 hrs by PI staining based flow cytometry analysis (reference value: 46.67%)
K562 [6] = test: Induction of cell cycle arrest in human K562 cells assessed as accumulation of cells at S phase at 1.25 uM measured after 24 hrs by PI staining based flow cytometry analysis (reference value: 20.42%)
K562 [7] = test: Induction of cell cycle arrest in human K562 cells assessed as accumulation of cells at S phase at 2.56 uM measured after 24 hrs by PI staining based flow cytometry analysis (reference value: 21.74%)
K562 [8] = test: Induction of apoptosis in human K562 cells assessed as early apoptotic cells at 1.25 uM incubated for 24 hrs by annexinV and propidium iodide staining based flow cytometry analysis (reference value: 0.42%)

SMILES | Activity (K562 [1]) [%] | Activity (K562 [2]) [%] | Activity (K562 [3]) [%] | Activity (K562 [4]) [%] | Activity (K562 [5]) [%] | Activity (K562 [6]) [%] | Activity (K562 [7]) [%] | Activity (K562 [8]) [%]
CC(C)(C)n1cc(-c2ccnc(NCCCNS(=O)(=O)c3ccc(Cl)cc3)c2)c(-c2cccc(O)c2)n1 | 0.37 | 1.94 | 32.68 | – | – | – | – | –
O=C1c2ccccc2-c2n[nH]c3cccc1c23 | – | – | – | 48.84 | 30.88 | 19.52 | 21.55 | 0.72

From ChEMBL document CHEMBL5634117 (Eur J Med Chem, 2023)
